Source: patent publication US20220348590A1, “CYCLOOXYGENASE-2 INHIBITORS AND USES THEREOF” (The Board Institute, Inc., priority 2019, published 2022)
Where two headings read alike, the source gives them in different places.

Tests used:
[1] = molecular target: T1, human recombinant COX2 (hCOX2) (UniProt P35354); assay: LCMS-based COX2 enzymatic inhibition assay (PGE2 quantification); assay type: biochemical; parameters: COX2 2 minutes pge2/pge2d4 area ratio Avg; other: 2 minutes; readout pge2/pge2d4 area ratio; average; COX2 2 minutes pge2/pge2d4 area ratio Avg; LLE; average LLE; COX2 2 minutes pge2 area (counts) Avg; readout pge2 area (counts); other: 2 min; "ovine COX2 (oCOX2), human recombinant COX2 (hCOX2)"; conditions: for IC50: average
T1 sequence (P35354 1-604): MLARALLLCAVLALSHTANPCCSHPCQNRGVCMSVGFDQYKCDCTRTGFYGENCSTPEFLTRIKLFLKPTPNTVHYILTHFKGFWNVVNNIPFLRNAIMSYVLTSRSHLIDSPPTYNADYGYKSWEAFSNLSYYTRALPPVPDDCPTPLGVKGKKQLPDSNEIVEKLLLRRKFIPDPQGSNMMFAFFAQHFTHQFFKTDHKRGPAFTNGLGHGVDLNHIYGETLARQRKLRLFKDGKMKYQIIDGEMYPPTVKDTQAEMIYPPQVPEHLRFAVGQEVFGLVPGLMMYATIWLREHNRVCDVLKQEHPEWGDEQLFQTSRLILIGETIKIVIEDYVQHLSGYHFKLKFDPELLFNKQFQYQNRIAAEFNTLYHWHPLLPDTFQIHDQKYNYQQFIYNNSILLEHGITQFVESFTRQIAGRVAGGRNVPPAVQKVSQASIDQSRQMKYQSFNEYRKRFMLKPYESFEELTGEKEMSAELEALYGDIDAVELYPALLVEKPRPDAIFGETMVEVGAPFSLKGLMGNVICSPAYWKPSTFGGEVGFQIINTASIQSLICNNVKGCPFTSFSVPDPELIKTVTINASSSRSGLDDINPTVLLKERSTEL
How it was run: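 PGE2 formed from arachidonic acid (final 5 μM, 2 min) was measured by LC-MS-MS against DMSO controls. Enzyme (oCOX-1 0.1 μg or hCOX2 0.2 μg) with hematin/epinephrine cofactors at pH 8.0 was given 10 min at 37 °C with compound first. Twelve-point curves run three times gave IC50.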

ovine COX-1 (oCOX-1) = molecular target: T2, ovine COX-1 (oCOX-1) (Ovis aries, UniProt P05979); assay: LCMS-based COX-1 enzymatic inhibition assay (PGE2 quantification); assay type: biochemical
T2 construct: purchased Cayman Chemicals (Ann Arbor, Mich.)
T2 sequence (P05979 25-600): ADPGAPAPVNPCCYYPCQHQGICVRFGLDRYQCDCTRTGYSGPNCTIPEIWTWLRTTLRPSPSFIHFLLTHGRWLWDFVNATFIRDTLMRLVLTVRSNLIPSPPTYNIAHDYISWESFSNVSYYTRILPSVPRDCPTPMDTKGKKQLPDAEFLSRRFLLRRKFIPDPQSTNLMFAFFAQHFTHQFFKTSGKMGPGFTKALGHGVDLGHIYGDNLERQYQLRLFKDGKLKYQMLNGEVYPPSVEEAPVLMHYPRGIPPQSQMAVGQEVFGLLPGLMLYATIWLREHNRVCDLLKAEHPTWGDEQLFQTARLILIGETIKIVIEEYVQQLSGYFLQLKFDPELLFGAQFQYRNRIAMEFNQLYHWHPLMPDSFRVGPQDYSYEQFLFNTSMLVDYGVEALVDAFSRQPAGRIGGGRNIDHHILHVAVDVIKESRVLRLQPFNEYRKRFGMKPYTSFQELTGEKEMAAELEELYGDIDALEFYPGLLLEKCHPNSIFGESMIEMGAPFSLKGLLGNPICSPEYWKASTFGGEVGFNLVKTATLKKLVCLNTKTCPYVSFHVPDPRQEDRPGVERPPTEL
Procedure: We have adapted a previously reported cyclooxygenase enzymatic assay utilizing LCMS quantification of PGE2 as the product of COX-1 and COX2 catalyzed conversion of arachidonic acid to evaluate the binding properties of newly synthesized ligands [Cao, 2011]. These optimized and miniaturized (384-well plates) LCMS-based COX-1 and COX2 enzymatic assays enabled us to quickly evaluate newly synthesized ligands for COX2 binding affinity and selectivity vs COX-1. Using a shorter ligand-enzyme incubation time in the LCMS assay (2 minutes vs 10 minutes) also permitted us to prioritize ligands with faster binding kinetics. Considering the relatively slow on-rate kinetics of known coxibs, due to their 3-step binding mechanism [Marnett, 2009], we believe that optimizing this critical parameter will be key to the successful development of a COX2 PET tracer. Using these enzymatic assays, we have evaluated>200 newly synthesized ligands against COX2 and >20 ligands against COX-1. Another critical property necessary for a good PET radiotracer is to have low non-specific binding (NSB) to increase the free fraction and maximize the signal to noise ratio. This property can be evaluated using in-vitro protein binding assays, and we have now evaluated>50 newly synthesized ligands in mouse, rat and human plasma protein binding (PPB) assays as well as >15 ligands in a mouse brain protein binding (BPB) assay.
Ovine COX-1 (oCOX-1), ovine COX2 (oCOX2), human recombinant COX2 (hCOX2), arachidonic acid, PGE2, d4-PGD2, and […] (labeled with deuterium atoms at positions 3 and 4) were purchased from Cayman Chemicals (Ann Arbor, Mich.). The cofactors (−)epinephrine and hematin, and the COX inhibitors indomethacin, resveratrol and diclofenac were purchased from Sigma-Aldrich (St. Louis, Mo.). Celecoxib was purchased from 3B PharmaChem International (Wuhan, China). All organic solvents were HPLC grade or better and were purchased from Thermo Fisher (Hanover Park, Ill.). Formic acid was purchased from EMD Chemicals (San Diego, Calif.). Purified water was prepared by using a Millipore Milli-Q purification system (Millipore, Billerica, Mass.). All other chemicals and solvents were ACS reagent grade, unless stated otherwise.
In an Eppendorf tube, 146 μL of 100 mM Tris.HCl (pH 8.0) buffer, 2 μL of 100 μM hematin (co-factor) and 10 μL of 40 mM L-epinephrine (co-factor) were mixed at room temperature. Next, 20 μL of Tris.HCl (pH 8.0) buffer containing 0.2 μg COX2 or 0.1 μg COX-1 (approximately 1 unit of enzyme; 1 unit COX utilizes 1 nmol 02/mg/min at 37° C.) was added, and the solution was incubated at room temperature for 2 min. A 2 μL aliquot of the COX inhibitor in DMSO was added to the enzyme solution and preincubated at 37° C. for 10 min. Negative controls were identical except that 2 μL aliquots of DMSO without inhibitor were used instead.
Each COX reaction was initiated by adding 20 μL of arachidonic acid in Tris.HCl (pH 8.0) buffer to give a final concentration of 5 μM; and the reaction was terminated after 2 min by adding 20 μL of 2.0 M HCl. The surrogate standards d4-PGE2 and d4-PGD2 (10 μL aliquot of 50 ng/mL solution in methanol) were added to correct for errors or degradation during sample handling and for variation in injection volume or instrument response during LC-MS-MS. After 30 min, PGE2, PGD2 and their surrogate standards were extracted from each incubation mixture using 800 μL hexane/ethyl acetate (50:50, v/v). The organic phase was removed, evaporated to dryness, and reconstituted in 100 μL methanol/water (50:50, v/v) for analysis using LC-MS-MS.
The concentration of PGE2 in each sample was measured using LC-MS-MS, and the percent of COX inhibition by each test solution was determined by comparing the amount of PGE2 produced in the experiment with that produced in the negative control incubation. The formation of PGD2 was measured for quality control purposes, since the levels of PGD2 should be proportional to those of PGE2. […]

[2] = 2 minutes, readout pge2/pge2d4 area ratio, average LLE
[3] = 2 minutes, readout pge2/pge2d4 area ratio, read-out: COX2 2 minutes pge2/pge2d4 area ratio Avg. IC50
[4] = 2 minutes, readout pge2 area (counts), average LLE
[5] = 2 minutes, readout pge2 area (counts), read-out: COX2 2 minutes pge2 area (counts) Avg. IC50
[6] = 10 minutes, readout pge2/pge2d4 area ratio, average LLE
[7] = 10 minutes, readout pge2/pge2d4 area ratio, average, read-out: COX1 10 minutes pge2/pge2d4 area ratio Avg. IC50
[8] = 10 minutes, readout pge2 area (counts), average LLE
[9] = 10 minutes, pge2/pge2d4 area ratio, head of this section not shown, inferred
[10] = 10 minutes, pge2 area (counts), head of this section not shown, inferred
[11] = 10 minutes, pge2 area (counts), head of this section not shown, inferred, read-out: COX1 10 minutes pge2 area (counts) Avg. IC50

Row | COX2 2 minutes pge2/pge2d4 area ratio Avg. LLE [1, 2] | IC50 [1, 3] [nM] | COX2 2 minutes pge2 area (counts) Avg. LLE [1, 4] | IC50 [1, 5] [nM] | COX1 10 minutes pge2/pge2d4 area ratio Avg. LLE (ovine COX-1 (oCOX-1); [6]) | IC50 (ovine COX-1 (oCOX-1); [7]) [nM] | COX1 10 minutes pge2 area (counts) Avg. LLE (ovine COX-1 (oCOX-1); [8]) | COX2 10 minutes pge2 area (counts) Avg. LLE [1, 8] | IC50 ([1]; 10 minutes, readout pge2 area (counts), read-out: COX2 10 minutes pge2 area (counts) Avg. IC50) [nM] | IC50 (ovine COX-1 (oCOX-1); 10 minutes, readout pge2 area (counts), average, read-out: COX1 10 minutes pge2 area (counts) Avg. IC50) [nM] | IC50 (ovine COX-1 (oCOX-1); [11]) [nM] | Compound | IC50 (ovine COX-1 (oCOX-1)) [nM] | COX1 10 minutes pge2/pge2d4 area ratio Avg. LLE (ovine COX-1 (oCOX-1); [9]) | COX1 10 minutes pge2 area (counts) Avg. LLE (ovine COX-1 (oCOX-1); [10])
1 | 4.377 | 23.9 | 4.612 | 13.3 | 1.0149 | 51900 | 1.014 | – | – | – | – | CN(Cc1ccoc1)c1cccc(-c2ccc(S(C)(=O)=O)cc2)n1 [Compound 52] | – | – | –
2 | 3.727 | 25.5 | 3.7767 | 23.8 | 0.5171 | 39200 | 0.394 | 4.182 | 9.43 | 52000 | – | COc1cc(-c2ccc(S(C)(=O)=O)cc2)cc(NCc2cccs2)n1 [Compound 54] | – | – | –
3 | 5.691 | 31 | 5.691 | 30.9 | – | 34400 | – | – | – | – | – | CS(=O)(=O)c1ccc(-c2cncc(OCc3ccoc3)n2)cc1 [Compound 58] | – | 2.5036 | 2.324
4 | 3.897 | 35.1 | 3.961 | 27.1 | – | 1990 | – | – | – | – | 1830 | CS(=O)(=O)c1ccc(-c2ccc3cnn(Cc4cccs4)c3n2)cc1 [Compound 63] | – | 2.0906 | 2.128
5 | 5.595 | 36.1 | 5.591 | 36.6 | – | 5360 | – | – | – | – | 4760 | COc1ncc(-c2ccc(S(N)(=O)=O)cc2)nc1NCc1cccs1 [Compound 64] | – | 3.4205 | 3.473
6 | 3.0886 | 38.9 | 3.016 | 45.2 | – | 19600 | – | – | – | – | 21200 | CS(=O)(=O)c1ccc(-c2cc3ccoc3c(NCc3cccs3)n2)cc1 [Compound 67] | – | 0.3787 | 0.343

Row | Compound | COX2 2 minutes pge2/pge2d4 area ratio Avg. LLE [1, 2] | IC50 [1, 3] [nM] | COX2 2 minutes pge2 area (counts) Avg. LLE [1, 4] | IC50 [1, 5] [nM] | COX1 10 minutes pge2/pge2d4 area ratio Avg. LLE (ovine COX-1 (oCOX-1); [6]) | IC50 (ovine COX-1 (oCOX-1); [7]) [nM] | COX1 10 minutes pge2 area (counts) Avg. LLE (ovine COX-1 (oCOX-1); [8]) | COX2 10 minutes pge2 area (counts) Avg. LLE [1, 8] | IC50 ([1]; 10 minutes, readout pge2 area (counts), read-out: COX2 10 minutes pge2 area (counts) Avg. IC50) [nM] | IC50 (ovine COX-1 (oCOX-1); 10 minutes, readout pge2 area (counts), average, read-out: COX1 10 minutes pge2 area (counts) Avg. IC50) [nM] | IC50 (ovine COX-1 (oCOX-1); [11]) [nM] | IC50 (ovine COX-1 (oCOX-1)) [nM] | COX1 10 minutes pge2/pge2d4 area ratio Avg. LLE (ovine COX-1 (oCOX-1); [9]) | COX1 10 minutes pge2 area (counts) Avg. LLE (ovine COX-1 (oCOX-1); [10])
7 | CS(=O)(=O)c1ccc(-n2ccc3ccc(NCc4cccs4)nc32)cc1 [Compound 57] | 3.1281 | 30.6 | 3.132 | 29.8 | – | – | – | – | – | – | 50400 | 52000 | −0.196 | −0.1826
8 | COc1ncc(NCc2cccs2)nc1-c1ccc(S(C)(=O)=O)nc1 [Compound 60] | 5.902 | 32.3 | 5.891 | 33.4 | – | – | – | – | – | – | – | 52000 | 2.694 | 2.694
9 | CS(=O)(=O)c1ccc(-c2ccc3ccn(Cc4ccco4)c3n2)cc1 [Compound 61] | 3.446 | 33.3 | 3.403 | 37 | – | – | – | – | – | – | – | 52000 | 0.214 | 0.214
10 | CS(=O)(=O)c1ccc(-c2cncc(/C=C\c3cccs3)n2)cc1 [Compound 65] | 4.704 | 37 | 4.681 | 39 | – | – | – | – | – | – | 38000 | 52000 | 1.544 | 1.612
11 | COc1ccc(NCc2ccoc2)nc1-c1ccc(S(C)(=O)=O)cc1 [Compound 66] | 4.554 | 37.3 | 4.505 | 42 | – | – | – | – | – | – | – | 52000 | 1.364 | 1.364
